Tests used:
Format in all cases: cell-based
[1] = system: four Agrobacterium strains (AGL0, LBA4404, EHA101 and EHA105); test: Agrobacterium growth assay, the four strains
Protocol: (§1) For all Agrobacterium growth-assay experiments, standard Agrobacterium minimal medium was used, with no additives as a control treatment, or with the addition of either 5-fluorocytosine, 5-fluorouracil or thymidine. To begin these tests, experiments were conducted to test for growth of wild-type and mutant AGL0 Agrobacterium strains on either 5-fluorocytosine (5-fluorocytosine, the non-toxic substrate of the CODA protein) or 5-fluorouracil (5-fluorouracil, the toxic product).

[2] = system: Agrobacterium strain EHA105; test: Agrobacterium growth assay on solid minimal medium, EHA105; set-up: key: a score of zero (0) indicating no visible colonies; 1+ indicating a few isolated colonies; ++: progressing up to 5+; +++: progressing up to 5+; ++++: progressing up to 5+; +++++: 5+ indicating a confluent lawn; conditions: EHA105 plated at 1 × 10^4, after 3 days
Protocol: as §1

[3] = system: AGL0 THY−; test: Agrobacterium growth assay on solid medium, thymidine auxotroph AGL0 THY−; conditions: for Growth score: after 24 hours
Protocol: (§2) In Table 4, results of a more detailed kill-curve for strain AGL0 on 5-fluorouracil are shown. […] Finally, a third experiment was performed using either wild-type AGL0 or an auxotrophic mutant of AGL0 in which the gene encoding thymidylate synthase was inactivated, rendering the bacteria incapable of growth in the absence of thymidine (this strain was referred to as AGL0 THY−). The two strains were plated at high densities (10^6 or 10^8 CFU/plate) onto medium containing 0, 1 or 3 μg/ml 5-fluorouracil, with each of these three treatments containing either 0 or 50 mg/l thymidine.

[4] = system: Agrobacterium strain AGL0; test: Agrobacterium growth assay on solid minimal medium, wild-type AGL0; set-up: key to Growth score: a score of zero (0) indicating no visible colonies; 1+ indicating a few isolated colonies; ++: progressing up to 5+; +++: progressing up to 5+; ++++: progressing up to 5+; +++++: 5+ indicating a confluent lawn
Protocol: as §1, §2
The newly developed AGL0 mutant strain (THY−/codA+, see Example 1) was plated on varying concentrations of 5-fluorocytosine to assess growth. This strain, along with wild-type AGL0 were cultured overnight in liquid medium, diluted to 10^7 CFU and then 100 μl of suspension was plated onto minimal Agro medium+/− thymidine, with either 0, 100, 200 or 300 μg/ml 5-fluorocytosine, for a total of 8 treatments. After 72 hours at 28° C., the plates were scored for Agrobacterium growth.

[5] = system: Agrobacterium strain EHA101; test: Agrobacterium growth assay on solid minimal medium, EHA101; set-up: key: a score of zero (0) indicating no visible colonies; 1+ indicating a few isolated colonies; ++: progressing up to 5+; +++: progressing up to 5+; ++++: progressing up to 5+; +++++: 5+ indicating a confluent lawn; conditions: EHA101 plated at 1 x 10^4, after 3 days
Protocol: as §1

[6] = system: Agrobacterium strain LBA4404; test: Agrobacterium growth assay on solid minimal medium, LBA4404; set-up: key: a score of zero (0) indicating no visible colonies; 1+ indicating a few isolated colonies; ++: progressing up to 5+; +++: progressing up to 5+; ++++: progressing up to 5+; +++++: 5+ indicating a confluent lawn; conditions: LBA4404 plated at 1 × 10^4, after 3 days
Protocol: as §1

Which results are given for O=c1[nH]cc(F)c(=O)[nH]1 [5-fluorouracil]?
Growth ([1]; 1 μg/ml 5-fluorouracil, all four strains plated at the lower density (1×10^4 CFU)): no growth; Growth ([1]; 3 μg/ml 5-fluorouracil, any strain): no growth was observed; Totally inhibiting 5-fluorouracil concentration (3 μg/ml) relative to highest 5-fluorocytosine concentration tested (1000 μg/ml) ([1]; fold lower): over 300 fold; Growth score ([2]; 0.1 μg/ml 5-fluorouracil): +; Growth score ([2]; 1.0 μg/ml 5-fluorouracil): 0; Growth score ([2]; 3.0 μg/ml 5-fluorouracil): 0; Growth score ([3]; AGL0 THY- 1 x 10^6, 5-fluorouracil 1 μg/ml, no thymidine): 0; Growth score ([3]; AGL0 THY- 1 x 10^6, 5-fluorouracil 1 μg/ml, thy 50 mg/l): 0; Growth score ([3]; AGL0 THY- 1 x 10^6, 5-fluorouracil 3 μg/ml, no thymidine): 0; Growth score ([3]; AGL0 THY- 1 x 10^6, 5-fluorouracil 3 μg/ml, thy 50 mg/l): 0; Growth score ([3]; AGL0 THY- 1 x 10^8, 5-fluorouracil 1 μg/ml, no thymidine): 0; Growth score ([3]; AGL0 THY- 1 x 10^8, 5-fluorouracil 1 μg/ml, thy 50 mg/l): 0; Growth score ([3]; AGL0 THY- 1 x 10^8, 5-fluorouracil 3 μg/ml, no thymidine): 0; Growth score ([3]; AGL0 THY- 1 x 10^8, 5-fluorouracil 3 μg/ml, thy 50 mg/l): 0; Growth ([3]; THY− AGL0, 1 and 3 μg/ml 5-fluorouracil, 0 or 50 mg/l thymidine, 24 hours): no growth was observed; Growth ([4]; 0.3 μg/ml 5-fluorouracil, plating densities 1×10^3 to 1×10^8 CFU/plate): only a few colonies grew; Growth ([4]; 1 μg/ml 5-fluorouracil or higher, all plating densities): completely inhibited; Growth score ([4]; AGL0 1 x 10^6, 5-fluorouracil 1 μg/ml, no thymidine, after 24 hours): 0; Growth score ([4]; AGL0 1 x 10^6, 5-fluorouracil 1 μg/ml, thy 50 mg/l, after 24 hours): 0; Growth score ([4]; AGL0 1 x 10^6, 5-fluorouracil 3 μg/ml, no thymidine, after 24 hours): 0; Growth score ([4]; AGL0 1 x 10^6, 5-fluorouracil 3 μg/ml, thy 50 mg/l, after 24 hours): 0; Growth score ([4]; AGL0 1 x 10^8, 5-fluorouracil 1 μg/ml, no thymidine, after 24 hours): 0; Growth score ([4]; AGL0 1 x 10^8, 5-fluorouracil 1 μg/ml, thy 50 mg/l, after 24 hours): 0; Growth score ([4]; AGL0 1 x 10^8, 5-fluorouracil 3 μg/ml, no thymidine, after 24 hours): 0; Growth score ([4]; AGL0 1 x 10^8, 5-fluorouracil 3 μg/ml, thy 50 mg/l, after 24 hours): 0; Growth score ([4]; AGL0 1 × 10^3 CFU, 0.1 μg/ml 5-fluorouracil, 72 hours): ++; Growth score ([4]; AGL0 1 × 10^3 CFU, 0.3 μg/ml 5-fluorouracil, 72 hours): +; Growth score ([4]; AGL0 1 × 10^3 CFU, 1 μg/ml 5-fluorouracil, 72 hours): 0; Growth score ([4]; AGL0 1 × 10^3 CFU, 3 μg/ml 5-fluorouracil, 72 hours): 0; Growth score ([4]; AGL0 1 × 10^4 CFU, 0.1 μg/ml 5-fluorouracil, 72 hours): ++; Growth score ([4]; AGL0 1 × 10^4 CFU, 0.3 μg/ml 5-fluorouracil, 72 hours): +; Growth score ([4]; AGL0 1 × 10^4 CFU, 1 μg/ml 5-fluorouracil, 72 hours): 0; Growth score ([4]; AGL0 1 × 10^4 CFU, 3 μg/ml 5-fluorouracil, 72 hours): 0; Growth score ([4]; AGL0 1 × 10^5 CFU, 0.1 μg/ml 5-fluorouracil, 72 hours): +++; Growth score ([4]; AGL0 1 × 10^5 CFU, 0.3 μg/ml 5-fluorouracil, 72 hours): +; Growth score ([4]; AGL0 1 × 10^5 CFU, 1 μg/ml 5-fluorouracil, 72 hours): 0; Growth score ([4]; AGL0 1 × 10^5 CFU, 3 μg/ml 5-fluorouracil, 72 hours): 0; Growth score ([4]; AGL0 1 × 10^6 CFU, 0.1 μg/ml 5-fluorouracil, 72 hours): ++; Growth score ([4]; AGL0 1 × 10^6 CFU, 0.3 μg/ml 5-fluorouracil, 72 hours): +; Growth score ([4]; AGL0 1 × 10^6 CFU, 1 μg/ml 5-fluorouracil, 72 hours): 0; Growth score ([4]; AGL0 1 × 10^6 CFU, 3 μg/ml 5-fluorouracil, 72 hours): 0; Growth score ([4]; AGL0 1 × 10^7 CFU, 0.1 μg/ml 5-fluorouracil, 72 hours): ++; Growth score ([4]; AGL0 1 × 10^7 CFU, 0.3 μg/ml 5-fluorouracil, 72 hours): +; Growth score ([4]; AGL0 1 × 10^7 CFU, 1 μg/ml 5-fluorouracil, 72 hours): 0; Growth score ([4]; AGL0 1 × 10^7 CFU, 3 μg/ml 5-fluorouracil, 72 hours): 0; Growth score ([4]; AGL0 1 × 10^8 CFU, 0.1 μg/ml 5-fluorouracil, 72 hours): +++; Growth score ([4]; AGL0 1 × 10^8 CFU, 0.3 μg/ml 5-fluorouracil, 72 hours): +; Growth score ([4]; AGL0 1 × 10^8 CFU, 1 μg/ml 5-fluorouracil, 72 hours): 0; Growth score ([4]; AGL0 1 × 10^8 CFU, 3 μg/ml 5-fluorouracil, 72 hours): 0; Growth score ([4]; AGL0 plated at 1 × 10^4, 0.1 μg/ml 5-fluorouracil, after 3 days): +; Growth score ([4]; AGL0 plated at 1 × 10^4, 1.0 μg/ml 5-fluorouracil, after 3 days): 0; Growth score ([4]; AGL0 plated at 1 × 10^4, 3.0 μg/ml 5-fluorouracil, after 3 days): 0; Growth score ([4]; AGL0 plated at 4 × 10^7, 0.1 μg/ml 5-fluorouracil, after 3 days): ++++; Growth score ([4]; AGL0 plated at 4 × 10^7, 1.0 μg/ml 5-fluorouracil, after 3 days): ++++; Growth score ([4]; AGL0 plated at 4 × 10^7, 3.0 μg/ml 5-fluorouracil, after 3 days): 0; Growth ([4]; wild-type AGL0, 1 and 3 μg/ml 5-fluorouracil, 0 or 50 mg/l thymidine, 24 hours): no growth was observed; Growth score ([5]; 0.1 μg/ml 5-fluorouracil): ++; Growth score ([5]; 1.0 μg/ml 5-fluorouracil): 0; Growth score ([5]; 3.0 μg/ml 5-fluorouracil): 0; Growth score ([6]; 0.1 μg/ml 5-fluorouracil): +++; Growth score ([6]; 1.0 μg/ml 5-fluorouracil): 0; Growth score ([6]; 3.0 μg/ml 5-fluorouracil): 0

Source: patent US20180265877A1, “METHODS AND COMPOSITIONS FOR AGROBACTERIUM COMPRISING NEGATIVE SELECTION MARKERS” (PIONEER HI-BRED INTERNATIONAL, INC., priority 2015, published 2018)
